The source of these data is PubChem BioAssay AID220 (DTP/NCI, 2004).

The subject of the assay is CD8F1 mice, subcutaneous mammary adenocarcinoma, T/C%. Nature of the assay: NCI In Vivo Anticancer Drug Screen. Data for tumor model Mammary Adenocarcinoma CD8F1 (subcutaneous) in CD8F1. The settings on record: higher = larger tumour. The procedure, abridged:
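Ratio of treated to vehicle-control outcome, based on either survival or tumor size, in mice bearing transplantable tumors given the test compound.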

The mark [1] stands for this setting: endpoint: median tumor weight (est.), dose: 2.0 mg/kg/injection, schedule: Q07DX005 (ip), vehicle: saline.
Setting [2] is: endpoint: median tumor weight (est.), dose: 6.25 mg/kg/injection, schedule: Q07DX005 (ip), vehicle: Klucel (hydroxypropylcellulose) (HPC).
[3] abbreviates: endpoint: median tumor weight (est.), dose: 12.5 mg/kg/injection, schedule: Q07DX005 (ip), vehicle: Klucel (hydroxypropylcellulose) (HPC).
The mark [4] stands for this setting: endpoint: median tumor weight (est.), dose: 25.0 mg/kg/injection, schedule: Q07DX005 (ip), vehicle: Klucel (hydroxypropylcellulose) (HPC).
Where [5] appears, read: endpoint: median tumor weight (est.), dose: 50.0 mg/kg/injection, schedule: Q07DX005 (ip), vehicle: Klucel (hydroxypropylcellulose) (HPC).
Where [6] appears, read: endpoint: median tumor weight (est.), dose: 100.0 mg/kg/injection, schedule: Q07DX005 (ip), vehicle: Klucel (hydroxypropylcellulose) (HPC).
Where [7] appears, read: endpoint: median tumor weight change, dose: 62.5 mg/kg/injection, schedule: Q01DX001 (ip), vehicle: saline with Tween-80.
The mark [8] stands for this setting: endpoint: median tumor weight change, dose: 125.0 mg/kg/injection, schedule: Q01DX001 (ip), vehicle: saline with Tween-80.
Where [9] appears, read: endpoint: mean tumor weight, dose: 12.5 mg/kg/injection, schedule: Q07DX007 (ip), vehicle: saline.

Where “and” joins values, the source holds several entries; their conditions need not be identical. Identical values can stand only once. Results filed as inconclusive are left out.

Consider `NC(=O)/C=C/c1c[nH]c2nccnc12`, for which the T/C runs as follows: (endpoint: median tumor weight change, dose: 31.25 mg/kg/injection, schedule: Q01DX001 (ip), vehicle: water) 124 % of control; (endpoint: median tumor weight change, dose: 62.5 mg/kg/injection, schedule: Q01DX001 (ip), vehicle: water) 73 % of control; (endpoint: median tumor weight change, dose: 125.0 mg/kg/injection, schedule: Q01DX001 (ip), vehicle: water) 58 % of control.
As to `CCCCCCCC(=O)OCC(=O)[C@]1(O)Cc2c(O)c3c(c(O)c2[C@@H](OC2CC(N)C(O)C(C)O2)C1)C(=O)c1c(OC)cccc1C3=O` (some centres undefined), the T/C by setting is: (endpoint: mean tumor weight, dose: 1.0 mg/kg/injection, schedule: Q07DX006 (ip), vehicle: saline) 62 % of control; (endpoint: mean tumor weight, dose: 2.0 mg/kg/injection, schedule: Q07DX006 (ip), vehicle: saline) 19 % of control; (endpoint: median tumor weight (est.), dose: 1.0 mg/kg/injection, schedule: Q07DX005 (ip), vehicle: saline) 64 % of control; under setting [1], 64 % of control; (endpoint: median tumor weight (est.), dose: 4.0 mg/kg/injection, schedule: Q07DX005 (ip), vehicle: saline) 66 % of control; (endpoint: median tumor weight (est.), dose: 8.0 mg/kg/injection, schedule: Q07DX005 (ip), vehicle: saline) 11 % of control.
As for `C/C(=N\NC(=S)N1CCN(c2ccccn2)CC1)c1ccccn1`, the T/C reads like this: (endpoint: median tumor weight change, dose: 12.5 mg/kg/injection, schedule: Q01DX001 (ip), vehicle: other) 74 % of control; (endpoint: median tumor weight change, dose: 25.0 mg/kg/injection, schedule: Q01DX001 (ip), vehicle: other) 76 % of control; (endpoint: median tumor weight change, dose: 50.0 mg/kg/injection, schedule: Q01DX001 (ip), vehicle: other) 87 % of control.
On to `O=c1nc(Oc2ccccc2)nc2ncccn12`, for which the T/C is, setting by setting: (endpoint: median tumor weight (est.), dose: 6.25 mg/kg/injection, schedule: Q07DX005 (ip), vehicle: saline with Tween-80) 88 % of control; (endpoint: median tumor weight (est.), dose: 12.5 mg/kg/injection, schedule: Q07DX005 (ip), vehicle: saline with Tween-80) 110 % of control; (endpoint: median tumor weight (est.), dose: 25.0 mg/kg/injection, schedule: Q07DX005 (ip), vehicle: saline with Tween-80) 100 % of control; (endpoint: median tumor weight (est.), dose: 50.0 mg/kg/injection, schedule: Q07DX005 (ip), vehicle: saline with Tween-80) 91 % of control; (endpoint: median tumor weight (est.), dose: 100.0 mg/kg/injection, schedule: Q07DX005 (ip), vehicle: saline with Tween-80) 114 % of control.
Consider `CCCCc1ccc(-n2c(C)c(COC(=O)NC)c(COC(=O)NC)c2C)cc1`, for which the T/C reads like this: under setting [2], 118 % of control; under setting [3], 63 % of control; under setting [4], 111 % of control; under setting [5], 56 % of control; under setting [6], 40 % of control.
Turning to `O=C1CN(Cc2ccc3c(c2)OCO3)NO1`, the T/C was 80 % of control and 84 % of control under setting [7]; 113 % of control and 115 % of control under setting [8]; 80 % of control and 83 % of control (endpoint: median tumor weight change, dose: 250.0 mg/kg/injection, schedule: Q01DX001 (ip), vehicle: saline with Tween-80); 88 % of control (endpoint: median tumor weight change, dose: 1000.0 mg/kg/injection, schedule: Q01DX001 (ip), vehicle: saline with Tween-80).
In the case of `COc1cc(OC)c(NC(=O)ON2C(=O)c3ccccc3C2=O)cc1Cl`, the T/C is, setting by setting: (endpoint: median tumor weight change, dose: 31.25 mg/kg/injection, schedule: Q01DX001 (ip), vehicle: saline with Tween-80) 62 % of control; under setting [7], 81 % of control; under setting [8], 92 % of control; (endpoint: median tumor weight change, dose: 500.0 mg/kg/injection, schedule: Q01DX001 (ip), vehicle: saline with Tween-80) 26 % of control.
For `COc1cccc2c1C(=O)c1c(O)c3c(c(O)c1C2=O)C[C@H](O)C[C@@H]3OC1CC(N)C(O)C(C)O1` (some centres undefined), the T/C (endpoint: median tumor weight (est.), dose: 0.78 mg/kg/injection, schedule: Q07DX005 (ip), vehicle: saline) was 68 % of control; the T/C (endpoint: median tumor weight (est.), dose: 1.56 mg/kg/injection, schedule: Q07DX005 (ip), vehicle: saline) is 79 % of control; the T/C (endpoint: median tumor weight (est.), dose: 3.12 mg/kg/injection, schedule: Q07DX005 (ip), vehicle: saline) is 82 % of control; the T/C (endpoint: median tumor weight (est.), dose: 6.25 mg/kg/injection, schedule: Q07DX005 (ip), vehicle: saline) was 84 % of control; the T/C (endpoint: median tumor weight (est.), dose: 12.5 mg/kg/injection, schedule: Q07DX005 (ip), vehicle: saline) was 70 % of control.
Turning to `O=C(O)CCCc1ccc(N(CCCl)CCCl)cc1`, the T/C is 234 % of control and 83 % of control under setting [1]; 77 % of control (endpoint: median tumor weight (est.), dose: 4.0 mg/kg/injection, schedule: Q07DX005 (ip), vehicle: saline with Tween-80); 88 % of control (endpoint: median tumor weight (est.), dose: 7.5 mg/kg/injection, schedule: Q07DX005 (ip), vehicle: Klucel (hydroxypropylcellulose) (HPC)); 46 % of control (endpoint: median tumor weight (est.), dose: 8.0 mg/kg/injection, schedule: Q07DX005 (ip), vehicle: saline with Tween-80); 26 % of control (endpoint: median tumor weight (est.), dose: 15.0 mg/kg/injection, schedule: Q07DX005 (ip), vehicle: Klucel (hydroxypropylcellulose) (HPC)); 43 % of control (endpoint: median tumor weight (est.), dose: 16.0 mg/kg/injection, schedule: Q07DX005 (ip), vehicle: saline with Tween-80). The T/C (endpoint: median tumor weight (est.), dose: 30.0 mg/kg/injection, schedule: Q07DX005 (ip), vehicle: Klucel (hydroxypropylcellulose) (HPC)) is 22 % of control; the T/C (endpoint: median tumor weight (est.), dose: 32.0 mg/kg/injection, schedule: Q07DX005 (ip), vehicle: saline with Tween-80) was 16 % of control; the T/C (endpoint: median tumor weight (est.), dose: 32.0 mg/kg/injection, schedule: Q07DX005 (ip), vehicle: saline) was 3 % of control and 14 % of control; the T/C (endpoint: median tumor weight change, dose: 16.0 mg/kg/injection, schedule: Q01DX001 (ip), vehicle: saline with Tween-80) is 57 % of control; the T/C (endpoint: median tumor weight change, dose: 32.0 mg/kg/injection, schedule: Q01DX001 (ip), vehicle: saline with Tween-80) is 62 % of control; the T/C (endpoint: median tumor weight change, dose: 64.0 mg/kg/injection, schedule: Q01DX001 (ip), vehicle: saline with Tween-80) is 38 % of control.
For `Cc1ccoc1`, the T/C by setting is: (endpoint: median tumor weight change, dose: 20.8 mg/kg/injection, schedule: Q03HX003 (ip), vehicle: saline with Tween-80) 66 % of control; (endpoint: median tumor weight change, dose: 41.6 mg/kg/injection, schedule: Q03HX003 (ip), vehicle: saline with Tween-80) 82 % of control; (endpoint: median tumor weight change, dose: 83.3 mg/kg/injection, schedule: Q03HX003 (ip), vehicle: saline with Tween-80) 62 % of control; (endpoint: median tumor weight change, dose: 166.6 mg/kg/injection, schedule: Q03HX003 (ip), vehicle: saline with Tween-80) 73 % of control.
Take `CC1=C(/C=C/C(C)=C/C=C/C(C)=C/C=O)C(C)(C)CCC1`: the T/C was 104 % of control under setting [7] and 74 % of control under setting [8].
Turning to `Nc1c(Cl)c(Cl)nc(C(=O)O)c1Cl`, the T/C is, setting by setting: (endpoint: mean tumor weight, dose: 6.25 mg/kg/injection, schedule: Q01DX015 (ip), vehicle: saline) 114 % of control; (endpoint: mean tumor weight, dose: 6.25 mg/kg/injection, schedule: Q07DX007 (ip), vehicle: saline) 94 % of control; (endpoint: mean tumor weight, dose: 12.5 mg/kg/injection, schedule: Q01DX015 (ip), vehicle: saline) 102 % of control; under setting [9], 102 % of control; (endpoint: mean tumor weight, dose: 25.0 mg/kg/injection, schedule: Q01DX015 (ip), vehicle: saline) 124 % of control; (endpoint: mean tumor weight, dose: 25.0 mg/kg/injection, schedule: Q07DX007 (ip), vehicle: saline) 83 % of control. For the same compound, the T/C by setting is: (endpoint: mean tumor weight, dose: 200.0 mg/kg/injection, schedule: Q07DX006 (ip), vehicle: saline) 64 % of control; (endpoint: mean tumor weight, dose: 300.0 mg/kg/injection, schedule: Q07DX006 (ip), vehicle: saline) 168 % of control.
On to `N#CC(=C1SCS1)[N+](=O)[O-]`, for which the T/C runs as follows: (endpoint: median tumor weight change, dose: 7.5 mg/kg/injection, schedule: Q01DX001 (ip), vehicle: saline with Tween-80) 83 % of control; (endpoint: median tumor weight change, dose: 15.0 mg/kg/injection, schedule: Q01DX001 (ip), vehicle: saline with Tween-80) 90 % of control; (endpoint: median tumor weight change, dose: 30.0 mg/kg/injection, schedule: Q01DX001 (ip), vehicle: saline with Tween-80) 152 % of control; (endpoint: median tumor weight change, dose: 60.0 mg/kg/injection, schedule: Q01DX001 (ip), vehicle: saline with Tween-80) 48 % of control.
With `CN(c1ccccc1)P(=O)(N1CC1)N1CC1`, under setting [9], the T/C is 3 % of control.
On to `CNC(=O)OCc1c(COC(=O)NC)c(C)n(-c2ccc(OC)cc2)c1C`, for which the T/C was 113 % of control under setting [2]; 90 % of control under setting [3]; 152 % of control under setting [4]; 23 % of control under setting [5]; 24 % of control under setting [6]; 109 % of control (endpoint: median tumor weight change, dose: 50.0 mg/kg/injection, schedule: Q01DX001 (ip), vehicle: Klucel (hydroxypropylcellulose) (HPC)). Further, the T/C was 79 % of control (endpoint: median tumor weight change, dose: 200.0 mg/kg/injection, schedule: Q01DX001 (ip), vehicle: Klucel (hydroxypropylcellulose) (HPC)) and 52 % of control (endpoint: median tumor weight change, dose: 400.0 mg/kg/injection, schedule: Q01DX001 (ip), vehicle: Klucel (hydroxypropylcellulose) (HPC)).
